Like-named read-outs stand apart in the source and are kept apart here. Non-standard residues stand in square brackets, D forms with d. Residues, ends and D or L forms follow the SMILES beside them. *: point of attachment. Lauroyl = CCCCCCCCCCCC(=O)*; 12Ado = NCCCCCCCCCCCC(=O)O; Octanoyl = CCCCCCCC(=O)*
Tests used:
[1] = test system: TRAMP-C2 cell line; format: cell-based
Description: Transgenic adenocarcinoma mouse prostate cells (TRAMP-C2);
(§1) As a routine cancer cell killing assay for assessment of antitumor activity, 2,3-bis(2-methoxy-4-nitro-5-sulfophenyl)-2H-tetrazolium-5-carboxanilide inner salt (XTT) reduction assay was used, utilizing a commercial kit such as, for example, Cell Proliferation XTT Kit, Cat. No. 20-300-1000, Biological Industries Ltd., Kibbutz Beit Haemek, Israel. XTT is a tetrazolium salt which is cleaved to formazan colored compounds by the mitochondrial dehydrogenase enzymes indicating proper mitochondrial activity in intact cells.
(§2) Thereafter, a series of increasing concentrations of the polymers were added. After another 24 hours of incubation, XTT reaction solution was added (50 μl of XTT per 100 μl of cell culture medium). The optical density of the cells was measured at 450 nm by ELISA plate reader after 2-4 hours XTT incubation. Cell viability was determined relative to a control having no polymer added thereto.
“Mouse prostate cancer TRAMP-C2” represents the lethal concentration in μM as measured against TRAMP-C2 cell line, measured as described hereinabove in the cell proliferation XTT assay (column 5 in Table 3);

[2] = in vitro; details: human
Protocol: The polymer's toxic potential was determined against human red blood cells (RBC) by measuring leakage of hemoglobin therefrom in phosphate buffer solution (PBS). Human blood samples were rinsed three times in PBS by centrifugation for 2 minutes at 200×g, and re-suspended in PBS at 5% hematocrit. A 50 μl-fractions of a suspension containing […] RBC were added to test tubes containing 200 μl of polymer solutions (2-fold serial dilutions in PBS), PBS alone (for base-line values), or distilled water (for 100% hemolysis). […] Controls for base-line hemolysis (blank) and 100% hemolysis consisted of RBC suspended in PBS and TritonX100 (0.2%), respectively.

[3] = XTT cell viability assay, non-cancerous cardiac fibroblasts (CF); format: cell-based, rat; details: rat
Description: Primary non-cancerous rat cardiac fibroblasts (CF);
as §1, §2
“Rat primary cardiac fibroblast CF” represents the lethal concentration in μM as measured against CF cell line, measured as described hereinabove in the cell proliferation XTT assay (column 8 in Table 3);

[4] = test system: MCF-7 cell line; format: cell-based
Protocol: Human breast adenocarcinoma cells (MCF-7);
Thereafter, a series of increasing concentrations of the polymers were added. […] The optical density of the cells was measured at 450 nm by ELISA plate reader after 2-4 hours XTT incubation. Cell viability was determined relative to a control having no polymer added thereto.

[5] = test system: N-417 cell line; assay: XTT cell viability assay, N-417 cells; format: cell-based
Description: Variant small cell lung cancer cells (N-417, SCLC);
as §1, §2
“Human breast cancer MCF-7” represents the lethal concentration in μM as measured against MCF-7 cell line, measured as described hereinabove in the cell proliferation XTT assay (column 6 in Table 3); “Human small-cell lung carcinoma N-417” represents the lethal concentration in μM as measured against N-417 cell line, measured as described hereinabove in the cell proliferation XTT assay (column 7 in Table 3);

[6] = 24 hours incubation, XTT, read-out: Cancer LC50 Mouse prostate cancer TRAMP-C2
[7] = LC50 against non-cancerous CF cells
[8] = primary non-cancerous cardiac fibroblasts (CF), 24 hours incubation, XTT, non-cancerous cells, read-out: Cancer LC50 Rat primary cardiac fibroblast CF
[9] = 24 hours incubation, XTT, read-out: Cancer LC50 Human breast cancer MCF-7
[10] = 24 hours incubation, XTT, read-out: Cancer LC50 Human small-cell lung carcinoma N-417
[11] = Cancer LC50 Rat primary cardiac fibroblast CF

SMILES	CC50 [1, 6] [µM]	HC50 at 3 h ([2]; red blood cells) [µM]	CC50 at 24 h [3, 8] [µM]	CC50 [4, 9] [µM]	CC50 [5, 10] [µM]	also measured
CCCCCCCC(=O)N[C@@H](CCCCN)C(=O)N[C@@H](CCCCN)C(=O)NCCCCCCCCCCCC(=O)N[C@@H](CCCCN)C(=O)N[C@@H](CCCCN)C(=O)NCCCCCCCCCCCC(=O)N[C@@H](CCCCN)C(=O)N[C@@H](CCCCN)C(=O)NCCCCCCCCCCCC(=O)N[C@@H](CCCCN)C(N)=O [C8K(KNC12K)3NH2] (Octanoyl-KK[12Ado]KK[12Ado]KK[12Ado]K-NH2)	16 ± 2	> 100	25 ± 8	5.7 ± 0.3	10 ± 0.4	CC50 at 24 h [3, 7]: 25 µM; CC50 ([4]; dose-dependent plots, FIGS. 4a-b, read-out: LC50 against MCF-7 cells): 5.5 µM
CCCCCCCCCCCC(=O)N[C@@H](CCCCN)C(=O)NCCCCCCCCCCCC(=O)N[C@@H](CCCCN)C(=O)N[C@@H](CCCCN)C(=O)NCCCCCCCCCCCC(=O)N[C@@H](CCCCN)C(N)=O [C12(KNC12K)2NH2] (Lauroyl-K[12Ado]KK[12Ado]K-NH2)	> 16	17 ± 6	67 ± 10	–	10 ± 1	CC50 at 24 h [3, 7]: 67 µM; CC50 ([4]; human, 24 h): 11 µM
CCCCCCCCCCCC(=O)N[C@@H](CCCCN)C(=O)N[C@@H](CCCCN)C(=O)NCCCCCCCCCCCC(=O)N[C@@H](CCCCN)C(N)=O [C12KKNC12KNH2] (HELM PEPTIDE1{[CCCCCCCCCCCC(=O)[*:2]].K.K.[O=C(CCCCCCCCCCCN[*:1])[*:2]].K.[am]}$$$$V2.0)	–	–	–	–	–	CC50 ([1]; mouse, 24 h): > 16 µM; CC50 at 24 h [3, 11]: > 16 µM; CC50 ([4]; human, 24 h): > 16 µM; CC50 ([5]; human, 24 h): > 50 µM
NCCCC[C@@H]1NC(=O)CCCCCCCCCCCNC(=O)[C@H](CCCCN)NC(=O)[C@H](CCCCN)NC(=O)CCCCCCCCCCCNC(=O)[C@H](CCCCN)NC1=O [Cyclic-(KNC12K)2] (HELM PEPTIDE1{[O=C(CCCCCCCCCCCN[*:1])[*:2]].K.K.[O=C(CCCCCCCCCCCN[*:1])[*:2]].K.K}$PEPTIDE1,PEPTIDE1,1:R1-6:R2$$$V2.0)	–	> 100	–	–	–	–
NCCCC[C@H](NC(=O)CCCCCCCCCCCNC(=O)[C@H](CCCCN)NC(=O)[C@@H](N)CCCCN)C(N)=O [KKNC12KNH2] (HELM PEPTIDE1{K.K.[O=C(CCCCCCCCCCCN[*:1])[*:2]].K.[am]}$$$$V2.0)	–	–	–	–	–	CC50 ([1]; mouse, 24 h): > 16 µM; CC50 at 24 h [3, 11]: > 16 µM; CC50 ([4]; human, 24 h): > 16 µM; CC50 ([5]; human, 24 h): > 16 µM
NCCCC[C@@H]1NC(=O)CCCCCCCCCCCNC(=O)[C@H](CCCCN)NC(=O)CCCCCCCCCCCNC(=O)[C@H](CCCCN)NC(=O)CCCCCCCCCCCNC(=O)[C@H](CCCCN)NC(=O)[C@H](CCCCN)NC(=O)CCCCCCCCCCCNC(=O)[C@H](CCCCN)NC(=O)CCCCCCCCCCCNC1=O [Cyclic-K(NC12K)5] (cyclo(K[12Ado]K[12Ado]K[12Ado]K[12Ado]K[12Ado]K))	–	–	–	–	–	HC50 at 3 h [2]: 3.4 ± 0.3 µM
CCCCCCCC(=O)N[C@@H](CCCCN)C(=O)NCCCCCCCCCCCC(=O)N[C@@H](CCCCN)C(=O)N[C@@H](CCCCN)C(=O)NCCCCCCCCCCCC(=O)N[C@@H](CCCCN)C(N)=O [C8(KNC12K)2NH2] (Octanoyl-K[12Ado]KK[12Ado]K-NH2)	> 8	–	> 16	> 16	> 16	–
CCCCCCCCCCCC(=O)N[C@@H](CCCCN)C(=O)N[C@@H](CCCCN)C(=O)NCCCCCCCCCCCC(=O)N[C@@H](CCCCN)C(=O)N[C@@H](CCCCN)C(=O)NCCCCCCCCCCCC(=O)N[C@@H](CCCCN)C(=O)N[C@@H](CCCCN)C(=O)NCCCCCCCCCCCC(=O)N[C@@H](CCCCN)C(N)=O (Lauroyl-KK[12Ado]KK[12Ado]KK[12Ado]K-NH2)	> 16	10 ± 1	36 ± 6	8 ± 1	17 ± 2	–
NCCCCCCCCCCCC(=O)N[C@@H](CCCCN)C(=O)N[C@@H](CCCCN)C(=O)NCCCCCCCCCCCC(=O)N[C@@H](CCCCN)C(N)=O [NC12KKNC12KNH2] (HELM PEPTIDE1{[NCCCCCCCCCCCC(=O)[*:2]].K.K.[O=C(CCCCCCCCCCCN[*:1])[*:2]].K.[am]}$$$$V2.0)	> 16	–	> 16	> 16	> 16	–
CCCCCCCCCCCC(=O)N[C@@H](CCCCN)C(=O)NCCCCCCCCCCCC(=O)N[C@@H](CCCCN)C(=O)N[C@@H](CCCCN)C(=O)NCCCCCCCCCCCC(=O)N[C@@H](CCCCN)C(=O)N[C@@H](CCCCN)C(=O)NCCCCCCCCCCCC(=O)N[C@@H](CCCCN)C(N)=O (Lauroyl-K[12Ado]KK[12Ado]KK[12Ado]K-NH2)	10	10 ± 0.1	> 16	6 ± 1	< 16	CC50 ([1]; dose-dependent plot, FIG. 6a, read-out: LC50 towards TRAMP-C2 cells): 11 µM; CC50 at 24 h ([3]; primary non-cancerous cardiac fibroblasts (CF), dose-dependent plots, FIGS. 4a-b, 6a, read-out: LC50 against non-cancerous CF cells): 38 µM
CCCCCCCCCCCC(=O)N[C@@H](CCCCN)C(=O)N[C@@H](CCCCN)C(=O)NCCCCCCCCCCCC(=O)N[C@@H](CCCCN)C(=O)N[C@@H](CCCCN)C(=O)NCCCCCCCCCCCC(=O)N[C@@H](CCCCN)C(N)=O [C12K(KNC12K)2NH2] (Lauroyl-KK[12Ado]KK[12Ado]K-NH2)	> 16	–	38 ± 1	12 ± 4	11 ± 1	–
CCCCCCCC(=O)N[C@@H](CCCCN)C(=O)N[C@@H](CCCCN)C(=O)NCCCCCCCCCCCC(=O)N[C@@H](CCCCN)C(N)=O [C8KKNC12KNH2] (HELM PEPTIDE1{[CCCCCCCC(=O)[*:2]].K.K.[O=C(CCCCCCCCCCCN[*:1])[*:2]].K.[am]}$$$$V2.0)	–	–	–	–	–	CC50 ([1]; mouse, 24 h): > 16 µM; CC50 at 24 h [3, 11]: > 16 µM; CC50 ([4]; human, 24 h): > 16 µM; CC50 ([5]; human, 24 h): > 16 µM
NCCCCCCCCCCCC(=O)N[C@@H](CCCCN)C(=O)NCCCCCCCCCCCC(=O)N[C@@H](CCCCN)C(=O)N[C@@H](CCCCN)C(=O)NCCCCCCCCCCCC(=O)N[C@@H](CCCCN)C(N)=O [NC12(KNC12K)2NH2] (H-[12Ado]K[12Ado]KK[12Ado]K-NH2)	–	–	–	–	–	CC50 ([1]; mouse, 24 h): > 16 µM; CC50 at 24 h [3, 11]: > 16 µM; CC50 ([4]; human, 24 h): > 16 µM; CC50 ([5]; human, 24 h): > 16 µM
NCCCCCCCCCCCC(=O)N[C@@H](CCCCN)C(=O)N[C@@H](CCCCN)C(=O)NCCCCCCCCCCCC(=O)N[C@@H](CCCCN)C(=O)N[C@@H](CCCCN)C(=O)NCCCCCCCCCCCC(=O)N[C@@H](CCCCN)C(N)=O [NC12K(KNC12K)2NH2] (H-[12Ado]KK[12Ado]KK[12Ado]K-NH2)	> 16	–	> 16	> 16	> 16	–
NCCCC[C@H](NC(=O)CCCCCCCCCCCNC(=O)[C@H](CCCCN)NC(=O)[C@H](CCCCN)NC(=O)CCCCCCCCCCCNC(=O)[C@H](CCCCN)NC(=O)[C@H](CCCCN)NC(=O)CCCCCCCCCCCNC(=O)[C@H](CCCCN)NC(=O)[C@@H](N)CCCCN)C(N)=O [K(KNC12K)3NH2] (H-KK[12Ado]KK[12Ado]KK[12Ado]K-NH2)	> 16	> 100	> 16	> 16	> 16	–
NCCCC[C@H](NC(=O)CCCCCCCCCCCNC(=O)[C@H](CCCCN)NC(=O)[C@H](CCCCN)NC(=O)CCCCCCCCCCCNC(=O)[C@H](CCCCN)NC(=O)[C@@H](N)CCCCN)C(N)=O [K(KNC12K)2NH2] (HELM PEPTIDE1{K.K.[O=C(CCCCCCCCCCCN[*:1])[*:2]].K.K.[O=C(CCCCCCCCCCCN[*:1])[*:2]].K.[am]}$$$$V2.0)	> 16	–	> 16	> 16	> 16	–
NCCCC[C@@H]1NC(=O)CCCCCCCCCCCNC(=O)[C@H](CCCCN)NC(=O)[C@H](CCCCN)NC(=O)CCCCCCCCCCCNC(=O)[C@H](CCCCN)NC(=O)[C@H](CCCCN)NC(=O)CCCCCCCCCCCNC1=O [Cyclic-NC12K(KNC12K)2] (cyclo([12Ado]KK[12Ado]KK[12Ado]K))	–	–	–	–	–	HC50 at 3 h [2]: > 100 µM
NCCCC[C@@H]1NC(=O)CCCCCCCCCCCNC(=O)[C@H](CCCCN)NC(=O)[C@H](CCCCN)NC(=O)CCCCCCCCCCCNC1=O [Cyclic-NC12KKNC12K] (HELM PEPTIDE1{[O=C(CCCCCCCCCCCN[*:1])[*:2]].K.[O=C(CCCCCCCCCCCN[*:1])[*:2]].K.K}$PEPTIDE1,PEPTIDE1,1:R1-5:R2$$$V2.0)	–	> 100	–	–	–	–
NCCCC[C@@H]1NC(=O)CCCCCCCCCCCNC(=O)[C@H](CCCCN)NC(=O)[C@H](CCCCN)NC(=O)CCCCCCCCCCCNC(=O)[C@H](CCCCN)NC(=O)[C@H](CCCCN)NC(=O)CCCCCCCCCCCNC(=O)[C@H](CCCCN)NC1=O [Cyclic-(KNC12K)3] (cyclo(K[12Ado]KK[12Ado]KK[12Ado]K))	–	–	–	–	–	HC50 at 3 h [2]: > 100 µM

Source: patent publication US20100173832A1, “ANTICANCEROUS POLYMERIC AGENTS” (TECHNION RESEARCH & DEVELOPMENT FOUNDATION LTD., priority 2007, published 2010)
